According to US8501755B2, “Tetrahydropyridothienopyrimidine compounds and methods of use thereof” (Bayer Intellectual Property GmbH, priority 2006, dated 2013):

Experiments:
Assay type in all cases: cell-based
A431 cells = experiment: In vitro tumor cell proliferation assay (Cell Titer-Glo) in A431 cells; conditions: Homo sapiens, A-431, 72 h, A431 human epidermoid carcinoma overexpressing HER1; 72 hours exposure; read-out: IC50, activities in A431 cell lines
Excerpt: (§1) The tumor cell proliferation assay used to test the compounds of the present invention involves a readout called Cell Titer-Glow® Luminescent Cell Viability Assay developed by Promega® (Cunningham, BA “A Growing Issue: Cell Proliferation Assays, Modern kits ease quantification of cell growth” The Scientist 2001, 15(13), 26, and Crouch, S P et al., “The use of ATP bioluminescence as a measure of cell proliferation and cytotoxicity” Journal of Immunological Methods 1993, 160, 81-88), that measures inhibition of cell proliferation. Generation of a luminescent signal corresponds to the amount of ATP present, which is directly proportional to the number of metabolically active (proliferating) cells. A431 cells [human epidermoid carcinoma, ATCC # HTB-20, overexpressing HER1 (EGFR, ErbB1)] and N87 [human gastric carcinoma, ATCC # CRL-1555, overexpressing HER2 (ErbB2) and HER1 (EGFR, ErbB1)] were plated at a density of 2.5×10^3 cells/well in 96 well black-clear bottom tissue culture plates in RPMI media with 10% Fetal Bovine Serum and incubated at 37° C. Twenty-four hours later, test compounds are added at a final concentration range from as high 100 μm to as low […] depend on the activities of the tested compounds in serial dilutions at a final DMSO concentration of 0.1%. Cells were incubated for 72 hours at 37° C. in complete growth media after addition of the test compound. After 72 hours of drug exposure, the plates were equilibrated to room temperature for approximately 30 min. Then, using a Promega Cell Titer Glo Luminescent® assay kit, lysis buffer containing 100 microliters of the enzyme luciferase and its substrate, luciferin mixture, was added to each well. The plates were mixed for 2 min on orbital shaker to ensure cell lysis and incubated for 10 min at room temperature to stabilize luminescence signal. The samples were read on VICTOR2 using Luminescence protocol, and analyzed with Analyze5 software to generate IC50 values.

N87 = experiment: In vitro tumor cell proliferation assay (Cell Titer-Glo) in N87 cells; conditions: N87 human gastric carcinoma overexpressing HER2 and HER1; 72 hours exposure; read-out: IC50, activities in N87 cell lines
Excerpt: as §1

H1975 cells = experiment: In vitro tumor cell proliferation assay (Cell Titer-Glo) in H1975 cells; conditions: NCI-H1975; H1975 human NSCLC expressing mutant HER1 (L858R,T790M); 72 hours exposure; read-out: IC50, activities in H 1975 cell lines
Excerpt: The tumor cell proliferation assay used to test the compounds of the present invention involves a readout called Cell Titer-Glow® Luminescent Cell Viability Assay developed by Promega® (Cunningham, BA “A Growing Issue: Cell Proliferation Assays, Modern kits ease quantification of cell growth” The Scientist 2001, 15(13), 26, and Crouch, S P et al., “The use of ATP bioluminescence as a measure of cell proliferation and cytotoxicity” Journal of Immunological Methods 1993, 160, 81-88), that measures inhibition of cell proliferation. Generation of a luminescent signal corresponds to the amount of ATP present, which is directly proportional to the number of metabolically active (proliferating) cells.
H1975 cells [human non small cell lung carcinoma, ATCC # CRL-5908, expressing mutant HER1 [(EGFR, ErbB1)(L858R,T790M] were plated at a density of 3×10^3 cells/well in 96 well black-clear bottom tissue culture plates in RPMI media with 10% Fetal Bovine Serum and incubated at 37° C. Twenty-four hours later, test compounds are added at a final concentration range from as high 10 uM to as low 64 pM depending on the activities of the tested compounds in serial dilutions at a final DMSO concentration of 0.1%. Cells were incubated for 72 hours at 37° C. in complete growth media after addition of the test compound. After 72 hours of drug exposure, the plates were equilibrated to room temperature for approximately 30 min. Then, using a Promega Cell Titer Glo Luminescent® assay kit, lysis buffer containing 100 microliters of the enzyme luciferase and its substrate, luciferin mixture, was added to each well. The plates were mixed for 2 min on orbital shaker to ensure cell lysis and incubated for 10 min at room temperature to stabilize luminescence signal. The samples were read on VICTOR2 using Luminescence protocol, and analyzed with Analyze5 software to generate IC50 values.

IC50 (A431 cells) | IC50 (N87) | IC50 (H1975 cells) | Compound
1 to 10 µM | 0.2 to 5 µM | 1 to 10 µM | C#Cc1cccc(Nc2ncnc3sc4c(c23)CCN(C(=O)C2=CCCN(C)C2)C4)c1 [Example 31, N-(3-ethynylphenyl)-7-[(1-methyl-1,2,5,6-tetrahydropyridin-3-yl)carbonyl]-5,6,7,8-tetrahydropyrido [4′,3′:4,5]thieno[2,3-d]pyrimidin-4-amine]
1 to 10 µM | < 0.2 µM | 1 to 10 µM | O=C(/C=C/CN(CCO)CCO)N1CCc2c(sc3ncnc(Nc4ccc(F)c(Cl)c4)c23)C1 [Example 32, 2,2′-{[(2E)-4-{4-[(3-chloro-4-fluorophenyl)amino]-5,8-dihydropyrido [4′,3′:4,5]thieno[2,3-d]pyrimidin-7(6H)-yl}-4-oxobut-2-en-1-yl]imino}diethanol]
1 to 10 µM | 0.2 to 5 µM | 1 to 10 µM | O=C(/C=C/CN1CCSC1)N1CCc2c(sc3ncnc(Nc4ccc(F)c(Cl)c4)c23)C1 [Example 35, N-(3-chloro-4-fluorophenyl)-7-[(2E)-4-(1,3-thiazolidin-3-yl)but-2-enoyl]-5,6,7,8-tetrahydropyrido [4′3′:4,5]thieno[2,3-d]pyrimidin-4-amine]
1 to 10 µM | < 0.2 µM | 1 to 10 µM | CCN(C/C=C/C(=O)N1CCc2c(sc3ncnc(Nc4ccc(F)c(Cl)c4)c23)C1)C(C)C [Example 37, N-(3-chloro-4-fluorophenyl)-7-{(2E)-4-[ethyl(isopropyl)amino]but-2-enoyl}-5,6,7,8-tetrahydropyrido [4′3′:4,5]thieno[2,3-d]pyrimidin-4-amine]
1 to 10 µM | 0.2 to 5 µM | 1 to 10 µM | O=C(/C=C/CN1CCc2ccccc21)N1CCc2c(sc3ncnc(Nc4ccc(F)c(Cl)c4)c23)C1 [Example 38, N-(3-chloro-4-fluorophenyl)-7-[(2E)-4-(2,3-dihydro-1H-indol-1-yl)but-2-enoyl]-5,6,7,8-tetrahydropyrido [4′3′:4,5]thieno[2,3-d]pyrimidin-4-amine]
1 to 10 µM | < 0.2 µM | 1 to 10 µM | CC(O)CN(C/C=C/C(=O)N1CCc2c(sc3ncnc(Nc4ccc(F)c(Cl)c4)c23)C1)CC(C)O (stereo not drawn) [Example 39, 1,1′-{[(2E)-4-{4-[(3-chloro-4-fluorophenyl)amino]-5,8-dihydropyrido [4′,3′:4,5]thieno[2,3-d]pyrimidin-7(6H)-yl}-4-oxobut-2-en-1-yl]imino}dipropan-2-ol]
0.2 to 1 µM | < 0.2 µM | 0.2 to 1 µM | CCN(C)C/C=C/C(=O)N1CCc2c(sc3ncnc(Nc4ccc(F)c(Cl)c4)c23)C1 [Example 40, N-(3-chloro-4-fluorophenyl)-7-{(2E)-4-[ethyl(methyl)amino]but-2-enoyl}-5,6,7,8-tetrahydropyrido [4′,3′:4,5]thieno[2,3-d]pyrimidin-4-amine]
0.2 to 1 µM | < 0.2 µM | 1 to 10 µM | CC1CN(C/C=C/C(=O)N2CCc3c(sc4ncnc(Nc5ccc(F)c(Cl)c5)c34)C2)CC(C)O1 (stereo not drawn) [Example 41]
1 to 10 µM | < 0.2 µM | 1 to 10 µM | O=C(/C=C/CN1CCSCC1)N1CCc2c(sc3ncnc(Nc4ccc(F)c(Cl)c4)c23)C1 [Example 42, N-(3-chloro-4-fluorophenyl)-7-[(2E)-4-thiomorpholin-4-ylbut-2-enoyl]-5,6,7,8-tetrahydropyrido [4′,3′:4,5]thieno[2,3-d]pyrimidin-4-amine]
1 to 10 µM | < 0.2 µM | 1 to 10 µM | O=C(/C=C/CN(CCO)CCO)N1CCc2c(sc3ncnc(Nc4ccc(OCc5ccccn5)c(Cl)c4)c23)C1 [Example 43, 2,2′-({(2E)-4-[4-{[3-chloro-4-(pyridin-2-ylmethoxy)phenyl]amino}-5,8-dihydropyrido [4′,3′:4,5]thieno[2,3-d]pyrimidin-7(6H)-yl]-4-oxobut-2-en-1-yl}imino)diethanol]
1 to 10 µM | < 0.2 µM | 1 to 10 µM | O=C(/C=C/CN1CCc2ccccc21)N1CCc2c(sc3ncnc(Nc4ccc(OCc5ccccn5)c(Cl)c4)c23)C1 [Example 44, N-[3-chloro-4-(pyridin-2-ylmethoxy)phenyl]-7-[(2E)-4-(2,3-dihydro-1H-indol-1-yl)but-2-enoyl]-5,6,7,8-tetrahydropyndo [4′,3′:4,5]thieno[2,3-d]pyrimidin-4-amine]
1 to 10 µM | < 0.2 µM | 0.2 to 1 µM | O=C(/C=C/CN1CCC(N2CCCCC2)CC1)N1CCc2c(sc3ncnc(Nc4ccc(F)c(Cl)c4)c23)C1 [Example 45, 7-[(2E)-4-(1,4′-bipiperidin-1-yl)but-2-enoyl]-N-(3-chloro-4-fluorophenyl)-5,6,7,8-tetrahydropyrido [4′,3′:4,5]thieno[2,3-d]pyrimidin-4-amine]
0.2 to 1 µM | < 0.2 µM | 0.2 to 1 µM | CC1CC(C)CN(C/C=C/C(=O)N2CCc3c(sc4ncnc(Nc5ccc(OCc6ccccn6)c(Cl)c5)c34)C2)C1 (stereo not drawn) [Example 46, N-[3-chloro-4-(pyridin-2-ylmethoxy)phenyl]-7-[(2E)-4-(3,5-dimethylpiperidin-1-yl)but-2-enoyl]-5,6,7,8-tetrahydropyrido [4′,3′:4,5]thieno[2,3-d]pyrimidin-4-amine]
0.2 to 1 µM | < 0.2 µM | 0.2 to 1 µM | O=C(/C=C/CN1CCCC(CO)C1)N1CCc2c(sc3ncnc(Nc4ccc(OCc5ccccn5)c(Cl)c4)c23)C1 (stereo not drawn) [Example 47, (1-{(2E)-4-[4-{[3-chloro-4-(pyridin-2-ylmethoxy)phenyl]amino}-5,8-dihydropyrido [4′,3′:4,5]thieno[2,3-d]pyrimidin-7(6H)-yl]-4-oxobut-2-en-1-yl}piperidin-3-yl)methanol]
1 to 10 µM | < 0.2 µM | 1 to 10 µM | CC1CCC(C)N1C/C=C/C(=O)N1CCc2c(sc3ncnc(Nc4ccc(OCc5ccccn5)c(Cl)c4)c23)C1 (stereo not drawn) [Example 48, N-[3-chloro-4-(pyridin-2-ylmethoxy)phenyl]-7-[(2E)-4-(2,5-dimethylpyrrolidin-1-yl)but-2-enoyl]-5,6,7,8-tetrahydropyrido [4′,3′:4,5]thieno[2,3-d]pyrimidin-4-amine]
0.2 to 1 µM | < 0.2 µM | 0.2 to 1 µM | CCN(C)C/C=C/C(=O)N1CCc2c(sc3ncnc(Nc4ccc(OCc5ccccn5)c(Cl)c4)c23)C1 [Example 49, N-(3-chloro-4-(pyridin-2-ylmethoxy)phenyl]-7-{(2E)-4-[ethyl(methyl)amino]but-2-enoyl}-5,6,7,8-tetrahydropyrido [4′,3′:4,5]thieno[2,3-d]pyrimidin-4-amine]
0.2 to 1 µM | < 0.2 µM | 1 to 10 µM | O=C(/C=C/Cn1ccnc1)N1CCc2c(sc3ncnc(Nc4ccc(OCc5ccccn5)c(Cl)c4)c23)C1 [Example 51, N-[3-chloro-4-(pyridin-2-ylmethoxy)phenyl]-7-[(2E)-4-(1H-imidazol-1-yl)but-2-enoyl]-5,6,7,8-tetrahydropyrido [4′,3′:4,5]thieno[2,3-d]pyrimidin-4-amine]
1 to 10 µM | 0.2 to 5 µM | 1 to 10 µM | CC(O)CN(C/C=C/C(=O)N1CCc2c(sc3ncnc(Nc4ccc(OCc5ccccn5)c(Cl)c4)c23)C1)CC(C)O (stereo not drawn) [Example 52, 1,1′-({(2E)-4-[4-{[3-chloro-4-(pyridin-2-ylmethoxy)phenyl]amino}-5,8-dihydropyrido [4′,3′:4,5]thieno[2,3-d]pyrimidin-7(6H)-yl]-4-oxobut-2-en-1-yl}imino)dipropan-2-ol]
